This is an account of results in US20070043034A1, “Chlorine Ion Uptake Modulators and Uses Thereof” (priority 2005, published 2007).

The subject of one test is KA-induced rat seizures. As to the kind of experiment: Kainic acid (KA) induced seizures in rat pups, EEG recording in vivo. The following applies: KA 2 mg/kg s.c. An excerpt: Kainic Acid (KA) is a commonly used agent for creating an in vivo neonatal-like seizure model in rats for study. It is believed that this seizure model closely parallels human neonatal seizure disorders. KA, a glutamate receptor agonist, was used to induce neonatal-like seizures in postnatal (P) 7-12 day male Wistar rats. The rats were equipped with electrodes including recording and reference electrodes by standard means. There are many known methods for measuring parameters of seizures, in this example electrical signals were digitized using an analogue-to-digital converter for example a DigiData 1322A (Axon Instuments USA). The sampling interval can vary depending on the desired target interval. In this example, the sampling interval per signal was 200 […]s (5 kHz). For data analysis, several computer programs exist for capturing and analyzing these seizure parameters such as Clamp 9.2 (Axon Instruments, USA) and Origon 5.0 (Microcal Software, USA) used here. Interictal spikes were determined by typical means utilizing band-pass filtered raw data.
Many known methods exist for analyzing the power levels of different frequency components in a signal such as a signal recorded from a seizure episode. For example, power spectrum analysis can be performed after applying a Hamming window function. Unless otherwise indicated, power was calculated in 1-2 min time windows by integrating the root mean square value of the signal in frequency bands from 1 to 100 Hz (EEC band) and from 200 to 500 Hz (fast ripple band).
Pharmaceutical compositions of the present invention can be administered to seizure-induced rats to test the seizure modulatory properties of the pharmaceutical composition. In one exemplary method, the inhibition of NKCCl and its affect on seizures in rat pups was studied. Two days after implantation of recording electrodes, six P9-P10 rats received subcutaneous injection of KA (2 mg/kg) and six P9-10 control rats received subcutaneous 0.9% sodium chloride saline injections. 10-20 minutes after KA injection regular pattern of behavioral signs started, involving scratching-like movements of the hindpaws, loss of balance and turning on the side. Recurrent interictal and ictal electroencephalographic patterns occurred 20-80 minutes (61.2±10.4 min; mean±se) after KA injection in all rats from this experimental group (FIG. 4B). […] Interictal spikes usually occurred synchronously in the left and right hemispheres. Frequency of the interictal spikes was 1.43±0.06 Hz (n=23 seizures in 6 rats). Before transition to ictal patterns, interictal spikes were usually followed by fast ripple (100-500 Hz) and gamma-frequency oscillations (20-50 Hz). Tonic-clonic seizures were the most common type of seizures induced by KA in P9-10 rats. Ictal-tonic phase lasted 12.6±1.4 s (16 seizures in 5 rats). Population spikes of 18.7±1.2 Hz were characteristic of the tonic phase of KA-induced seizures (FIG. 4C). Tonic discharges were followed by clonic bursts (FIG. 4C). Large amplitude population spikes followed by 100-200 Hz ripples and 200-1200 ms gamma frequency after discharges characterized the clonic bursts. The mean duration of the clonic phase was 36.4±5 s (25 seizures in 6 rats). The ictal patterns were followed by postictal depression (FIG. 4 B-4C). During ictal EEG activity, motor activity consisted of scratching, jerky movements, turning on the side or on the back and frequent tail shaking. Five to ten recurrent seizures with an average interval 379±24.5 s were followed by periodic epileptiform discharges (PLEDs) (FIG. 4D).
In one exemplary experiment, a pharmaceutical composition of the present invention comprising bumetanide was compared to phenobarbital for effects on KA-induced rat seizures. Two days after implantation of recording electrodes, twenty-two P9-12 age-matched rats received subcutaneous injection with KA (2 mg/kg). […]

Test [1] deals with low-Mg^2+ induced recurrent seizures in the intact hippocampus. Nature of the test: Low-Mg2+ ACSF induced recurrent seizures in the intact hippocampus in vitro. Format: cell-based, rat. The following applies: phenobarbital 100 μM, bumetanide 10 μM or both, 120 min application; intact hippocampus of P4-6 rats. From the text: High expression level of the Na^+ K^+-2Cl^− (NKCCl) co-transporter in immature neurons causes the accumulation of chloride ions and a depolarized Cl^− equilibrium potential (ECl). This is linked to a higher seizure propensity and poor EEG response in neonates to the barbiturates and benzodiazepines, conventional anticonvulsant drugs that target Cl^−-permeable GABAA-receptor (GABAA-R) operated channels. […] Recurrent ictal-like seizures were induced by low-Mg^+ ACSF in intact hippocampal preparations in vitro. […] Bumetanide decreased both seizure frequency and seizure power.
FIGS. 11A-11C are graphs of low-Mg^2+πinduced recurrent seizures in the intact hippocampus in vitro. […] First and last seizures from 5 hour recording are shown on an expanded time scale. Right, corresponding power spectra in the 0.1-1000 Hz frequency band. […] Summary data are taken from ten hippocampi. […] Power of the first seizure in each recording was considered as 100%. Data are taken from 18 recordings in 10 preparations from P4-6 rats.
FIGS. 12A-12C are graphs showing low efficiency of phenobarbital in neonatal seizures. FIG. 12A is a graph showing extracellular field potential recording in the CA3 pyramidal cell layer in the intact hippocampus of a P5 rat. Continuous application of low-Mg^2+ ACSF induced recurrent tonic-clonic seizures. […] The right portion corresponds to power spectra in the 0.1-1000 Hz frequency range. […] Data are from ten experiments that were combined. FIG. 12C is a graph showing power of recurrent seizures before, during and after phenobarbital application. Power of the first seizure in each recording was considered as 100%. Seizures were not depressed by phenobarbital indicating its low efficiency.
FIGS. 13A-13C are graphs showing that alteration of Cl^−-transport by bumetanide enhanced efficacy of phenobarbital in neonatal seizures. FIG. 13A is a graph of extracellular field potential recording in the CA3 pyramidal cell layer in the intact hippocampus of a P5 rat. Application of low-Mg^2+ ACSF induced recurrent seizures. […] These are shown on an expanded time scale. The right portion of FIG. 13A is a power spectra of extracellular field potential activity before and during application of drugs. FIG. 13B is a graph showing inter-seizure intervals before, during and after application of drugs. In 75% of experiments seizures were abolished (ISI>120 min) by simultaneous application of phenobarbital and bumetanide. FIG. 13C is a graph showing power of recurrent seizures before, during and after simultaneous application of phenobarbital and bumetanide. Power of the first seizure in each recording was considered as 100%. Seizures were depressed by combination of drugs.
FIGS. 14A and 14B are graphs showing alteration of Cl^−-transport for early-life seizure therapy. […]

The mark [2] stands for this setting: P9-12 rats, phenobarbital 25 mg/kg or bumetanide 0.1-0.2 mg/kg i.p.

On to `CCCCNc1cc(C(=O)O)cc(S(N)(=O)=O)c1Oc1ccccc1` [bumetanide, 3-(aminosulfonyl)-5-(butylamino)-4-phenoxybenzoic acid], for which, in the test with KA-induced rat seizures (bumetanide 0.1-0.2 mg/kg i.p.), the periodic epileptiform discharges entry is reported as “occurred in all six rats”. For the same molecule, in the test on KA-induced rat seizures (P9-12 rats, drug i.p. 10 min after KA (phenobarbital 25 mg/kg; bumetanide 0.1-0.2 mg/kg), 6 rats per group), the “animals with recurrent ictal-clonic activity / EEG clonic seizures” value is 50%. Moreover, in the test with KA-induced rat seizures (setting [2]), the “duration of ictal-clonic phase” value was found to be 12.5 ± 1.1 s; the “duration of ictal-tonic phase” value is 9 ± 1.9 s; the “frequency of interictal spikes” value worked out at 1.42 ± 0.07 Hz; the “mean duration of single ictal episode (seizure including interictal and ictal phases)” value worked out at 32 ± 3.9 s. In addition, in the test with KA-induced rat seizures (setting [2]), the “mean interval between seizures” value stood at 360.1 ± 68.6 s and the “rats with ictal-tonic pattern / tonic-clonic seizures” value was 16.7%. In addition, the “increase of power of EEG activity in the 20 minute window following seizure onset” value in the test on KA-induced rat seizures (compared to pre-ictal baseline, phenobarbital 25 mg/kg or bumetanide 0.1-0.2 mg/kg i.p., saline control 444.7±136.3%) was determined as 88.7±24.5%. Also, in test [1], the seizure frequency entry is on record as “decreased” and the seizure power entry was “decreased”.
